How the values were obtained:
[1] = Body weight of mice in antitumor study; format: in vivo, Balb-c/nude mice; details: 10 mg/kg i.v. on days 0 and 7, during the administration period
Experimental: (§1) The HCT116 cells were transplanted subcutaneously into the rear of 4-week female Balb-c/nude mice (1×10^6 cells/0.1 mL) At 4-6 weeks post-transplantation, HCT116 tumor-bearing mice (tumor volume: approximately 500 mm^3) were used in the antitumor activity study. Mice were treated i.v. via the tail vein on days 0 and 7. Animals were then injected with a drug PBS solution (free Dox, Dox-loaded polymer-incorporated nanoparticles, and Dox-loaded oligomer-contained nanoparticle complexes at a dose of 10 mg/kg). Tumor size was measured three weekly using a Vernier's caliper. To evaluate animal wellness and clinical status, the body weight of mice was recorded.

[2] = tested on: HCT116 tumor-bearing mice; experiment: In vivo antitumor activity; design: species or system Balb-c/nude mice; details: 10 mg/kg i.v. on days 0 and 7, compared to control mice
Experimental: as §1

## COc1cccc2c1C(=O)c1c(O)c3c(c(O)c1C2=O)C[C@@](O)(C(=O)CO)C[C@@H]3O[C@H]1C[C@H](N)[C@H](O)[C@H](C)O1 [free Dox, doxorubicin]
[1]
  Body weight of mice: obvious weight loss
[2]
  Tumor growth: inhibited tumor growth

Source: patent US9326938B2 (National Yang Ming Unviversity, priority 2013, dated 2016)
